# Reference: patent publication US11780845B2 (Relay Therapeutics, Inc., priority 2019, dated 2023)
# Molecular target: FGFR2 (Homo sapiens (Human), UniProt P21802)
# Experiment: FGFR2 Biochemical Caliper Assay
# Method: Compounds of the present invention were also tested in a FGFR2 Biochemical Caliper Assay. Compounds were prepared in 10 mM DMSO solution and serially diluted into 11 concentrations by 3-fold dilution. […] 5 uL of ATP solution (100 uM) was added to start the reaction and the plate was incubated for 90 minutes, then 70 uL of stopping buffer (0.5M EDTA) was added to terminate the reaction. Each well was analyzed using EZ reader.
# FGFR2, sequence (P21802 22-821): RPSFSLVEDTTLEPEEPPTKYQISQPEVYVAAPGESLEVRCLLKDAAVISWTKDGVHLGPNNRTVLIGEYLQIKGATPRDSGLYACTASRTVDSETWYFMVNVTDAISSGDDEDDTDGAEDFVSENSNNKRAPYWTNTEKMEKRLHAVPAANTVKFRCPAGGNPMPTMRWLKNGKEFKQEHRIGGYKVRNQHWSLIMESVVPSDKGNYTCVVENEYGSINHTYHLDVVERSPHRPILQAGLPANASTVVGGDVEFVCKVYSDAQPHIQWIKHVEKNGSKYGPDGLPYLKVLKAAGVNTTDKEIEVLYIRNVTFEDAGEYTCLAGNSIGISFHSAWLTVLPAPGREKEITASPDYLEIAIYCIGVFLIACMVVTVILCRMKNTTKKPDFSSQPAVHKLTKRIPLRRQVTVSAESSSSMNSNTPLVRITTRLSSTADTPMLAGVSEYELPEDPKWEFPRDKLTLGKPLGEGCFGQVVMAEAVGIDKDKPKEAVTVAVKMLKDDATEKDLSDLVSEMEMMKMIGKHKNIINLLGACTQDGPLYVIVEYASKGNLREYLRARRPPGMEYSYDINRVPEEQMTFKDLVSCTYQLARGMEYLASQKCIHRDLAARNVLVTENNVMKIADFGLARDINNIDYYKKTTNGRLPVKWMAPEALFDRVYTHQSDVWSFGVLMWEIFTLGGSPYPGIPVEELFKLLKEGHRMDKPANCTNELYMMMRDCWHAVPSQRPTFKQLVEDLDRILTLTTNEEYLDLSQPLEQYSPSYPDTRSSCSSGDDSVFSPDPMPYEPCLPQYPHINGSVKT
row,SMILES,IC50 [µM]
1,C=C(C)C(=O)Nc1ccc(-c2c(-c3ccc(Oc4cccc(C)n4)cc3)c3c(N)ncnc3n2C)cc1COC [Example 403],0.1 to 0.25
2,C=C(C)C(=O)Nc1ccc(-c2c(C3=CCC(C(=O)N4CCCC[C@@H]4C)CC3)c3c(N)ncnc3n2C)cc1 (stereo partly drawn) [Example 404],0.1 to 0.25
3,Cc1cccc(Oc2ccc(-c3c(-c4cnc(C#N)nc4)n(C)c4ncnc(N)c34)cc2)n1 [Example 405],< 0.1
4,C=C(C)C(=O)Nc1ccc(-c2c(-c3ccc(C(=O)N4CCCC4)cc3)c3c(N)ncnc3n2C)cc1C [Example 407],1 to 100
5,C=C(C)C(=O)Nc1ccc(-c2c(-c3ccc(C(=O)N(C)C(CF)CF)cc3)c3c(N)ncnc3n2C)cc1 [Example 412],< 0.1
6,C=C(C)C(=O)N(C)c1ccc(-c2c(-c3ccc(Oc4cccc(C)n4)cc3)c3c(N)ncnc3n2C)cc1 [Example 414],0.1 to 0.25
7,C=C(C)C(=O)Nc1ccc(-c2c(C3=CC[C@H](C(=O)N4CC5CCC(C5)C4)CC3)c3c(N)ncnc3n2C)cc1 [Example 420],1 to 100
8,C=C(C)C(=O)N(C)c1ccc(-c2c(-c3ccc(C(=O)NCC(C)(C)OC)cc3)c3c(N)ncnc3n2C)cc1 [Example 421],1 to 100
9,C=C(C)C(=O)Nc1ccc(-c2c(-c3ccc(C(=O)N4CCCC4)nc3)c3c(N)ncnc3n2C)cc1 [Example 422],1 to 100
10,C=C(C)C(=O)Nc1ccc(-c2c(-c3ccc(C(=O)N(CCN)CC(F)(F)F)cc3)c3c(N)ncnc3n2C)cc1 [Example 430],0.25 to 1
11,C=C(C)C(=O)Nc1ccc(-c2c(-c3ccc(C(=O)NCC(C)(C)OC)nc3)c3c(N)ncnc3n2C)cc1 [Example 438],1 to 100
12,C=C(C)C(=O)Nc1ccc(-c2c(-c3cnn(Cc4cccc(C)n4)c3)c3c(N)ncnc3n2C)cc1 [Example 439],1 to 100
13,C=C(C)C(=O)Nc1ccc(-c2c(-c3ccc(C(=O)N(C)CC4(OC)CC4)cc3)c3c(N)ncnc3n2C)cc1 [Example 440],1 to 100
14,C=C(C)C(=O)Nc1ccc(-c2c(-c3ccc(Oc4ncc(F)cn4)c(N(C)C)c3)c3c(N)ncnc3n2C)cc1 [Example 443],1 to 100
15,C=C(C)C(=O)Nc1ccc(-c2c(-c3ccc(Oc4ncc(OC)cn4)cc3)c3c(N)ncnc3n2C)cc1 [Example 450],0.25 to 1
16,C=C(C)C(=O)Nc1ccc(-c2c(-c3ccc(Oc4ncc(F)cn4)nc3)c3c(N)ncnc3n2C)cc1 [Example 453],1 to 100
17,C=C(C)C(=O)Nc1ccc(-c2c(-c3ccc(C(=O)N(CCN(C)C)CC(F)(F)F)cc3)c3c(N)ncnc3n2C)cc1 [Example 454],0.25 to 1
18,C=C(C)C(=O)Nc1ccc(-c2c(-c3ccc(Oc4ncc(N(C)C)cn4)c(F)c3)c3c(N)ncnc3n2C)cc1 [Example 455],0.25 to 1
19,C=C(C)C(=O)Nc1ccc(-c2c(-c3ccc(Oc4ncc(N(C)C)cn4)cc3)c3c(N)ncnc3n2C)cc1 [Example 456],0.25 to 1
20,C=C(C)C(=O)Nc1ccc(-c2c(-c3ccc(C(=O)NCC4CCC4)c(C(C)=O)c3)c3c(N)ncnc3n2C)cc1 [Example 457],0.1 to 0.25
21,C=C(C)C(=O)Nc1ccc(-c2c(-c3ccc(C(=O)N(C)CC4(F)COC4)cc3)c3c(N)ncnc3n2C)c(F)c1 [Example 467],0.1 to 0.25
22,C=C(C)C(=O)Nc1ccc(-c2c(-c3ccc(C(=O)N(C)CC4CCOC4)cc3)c3c(N)ncnc3n2C)cc1 (stereo not drawn) [Example 469],0.25 to 1

row,SMILES,IC50 [µM]
1,C=C(C)C(=O)Nc1ccc(-c2c(-c3cc(F)c(C(=O)NCC(C)(C)OC)c(F)c3)c3c(N)ncnc3n2C)cc1 [Example 470],0.1 to 0.25
2,C=C(C)C(=O)Nc1ccc(-c2c(-c3ccc(C(=O)N4CCCC4)cc3)c3c(N)ncnc3n2C)c(CC)c1 [Example 477],0.1 to 0.25
3,C=C(C)C(=O)Nc1ccc(-c2c(-c3ccc(C(=O)N4CCCC4)cc3)c3c(N)ncnc3n2C)c(C2CC2)c1 [Example 478],0.1 to 0.25
4,C=C(C)C(=O)Nc1ccc(-c2c(-c3cnc(Oc4cccc(C)n4)cn3)c3c(N)ncnc3n2C)cc1 [Example 480],0.25 to 1
5,C=C(C)C(=O)Nc1ccc(-c2c(-c3ccc(C(=O)N(C)Cc4ncno4)cc3)c3c(N)ncnc3n2C)cc1 [Example 481],1 to 100
6,C=C(C)C(=O)Nc1ccc(-c2c(-c3cnc(Oc4cccc(C)n4)nc3)c3c(N)ncnc3n2C)cc1 [Example 483],1 to 100
7,C=C(C)C(=O)Nc1ccc(-c2c(-c3ccc(C(=O)N4CCCC4)cc3)c3c(N)ncnc3n2C)c(CN2CCOCC2)c1 [Example 486],1 to 100
8,C=C(C)C(=O)Nc1ccc(-c2c(-c3ccn(Cc4cccc(C)n4)c(=O)c3)c3c(N)ncnc3n2C)cc1 [Example 488],1 to 100
9,C=C(C)C(=O)Nc1ccc(-c2c(-c3ccc(C(=O)N(C)CC4COC4)cc3)c3c(N)ncnc3n2C)c(F)c1 [Example 489],0.25 to 1
10,C=C(C)C(=O)Nc1ccc(-c2c(-c3ccc(Oc4nccc(C)n4)c(OCC)c3)c3c(N)ncnc3n2C)cc1 [Example 491],1 to 100
11,Cn1c(-c2ccc(C#N)nc2)c(-c2ccc(C(=O)N3CCCC3)cc2)c2c(N)ncnc21 [Example 493],1 to 100
12,C=C(C)C(=O)Nc1ccc(-c2c(-c3ccc(Oc4nccc(C)n4)c(COC)c3)c3c(N)ncnc3n2C)cc1 [Example 501],1 to 100
13,C=C(C)C(=O)Nc1ccc(-c2c(-c3ccc(Oc4nccc(C)n4)c(N(C)C)c3)c3c(N)ncnc3n2C)cc1 [Example 504],1 to 100
14,C=C(C)C(=O)Nc1ccc(-c2c(-c3ccc(C(=O)N4CCCC4)cc3)c3c(N)ncnc3n2C)c(CC)c1 [Example 516],< 0.1
15,C=C(C)C(=O)Nc1ccc(-c2c(-c3ccc(C(=O)N4CCCC4)cc3)c3c(N)ncnc3n2C)c(CC)c1 [Example 517],0.25 to 1
16,C=C(C)C(=O)Nc1ccc(-c2c(-c3ccc(C(=O)N4CCCC4)cc3)c3c(N)ncnc3n2C)c(C2CC2)c1 [Example 518],< 0.1
17,C=C(C)C(=O)Nc1ccc(-c2c(-c3ccc(Oc4nccc(C)n4)c(F)c3)c3c(N)ncnc3n2C)c(C(=O)N(C)C)c1 [Example 519],1 to 100
18,Cn1c(-c2ccc(NC(=O)C3=CCCC3)cc2)c(-c2ccc(C(=O)N3CCCC3)cc2)c2c(N)ncnc21 [Example 523],1 to 100
19,Cn1c(-c2ccc(NC(=O)C=C3CCC3)cc2)c(-c2ccc(C(=O)N3CCCC3)cc2)c2c(N)ncnc21 [Example 525],1 to 100
20,C=C(C)C(=O)Nc1ccc(-c2c(-c3ccc(Oc4nccc(C)n4)c(F)c3)c3c(N)ncnc3n2C2CCOC2)cc1 (stereo not drawn) [Example 536],< 0.1
21,Cn1c(-c2ccc(N3CCC=CC3=O)cc2)c(-c2ccc(C(=O)N3CCCC3)cc2)c2c(N)ncnc21 [Example 540],1 to 100
22,Cn1c(-c2ccc(NC(=O)CC3=CCCC3)cc2)c(-c2ccc(C(=O)N3CCCC3)cc2)c2c(N)ncnc21 [Example 542],1 to 100

row,SMILES,IC50 [µM]
1,Cn1c(-c2ccc(N3CCC=CS3(=O)=O)cc2)c(-c2ccc(C(=O)N3CCCC3)cc2)c2c(N)ncnc21 [Example 544],1 to 100
2,Cn1c(-c2ccc(NC(=O)C=C3CCCC3)cc2)c(-c2ccc(C(=O)N3CCCC3)cc2)c2c(N)ncnc21 [Example 545],1 to 100
3,C=C(C)C(=O)Nc1ccc(-c2c(-c3ccc(C(=O)N4CC5CC4(CO)C5)cc3)c3c(N)ncnc3n2C)cc1 [Example 547],0.25 to 1
4,C=C(C)C(=O)Nc1ccc(-c2c(-c3ccc(C(=O)N4CC5CC4(C)C5)cc3)c3c(N)ncnc3n2C)cc1 [Example 548],< 0.1
5,C=C(C)C(=O)Nc1ccc(-c2c(C3=CCC(Oc4ccn(C)n4)CC3)c3c(N)ncnc3n2C)cc1 (stereo not drawn) [Example 551],0.25 to 1
6,C/C(=C\CN(C)C)C(=O)Nc1ccc(-c2c(-c3ccc(C(=O)N4CCCC4)cc3)c3c(N)ncnc3n2C)cc1 [Example 553],0.25 to 1
7,C=C(C)C(=O)Nc1ccc(-c2c(-c3ccc(Oc4nccc(C)n4)c(F)c3)c3c(N)ncnc3n2C)c(CN(C)C)c1 [Example 555],< 0.1
8,Cn1c(-c2ccc(N3CC=CS3(=O)=O)cc2)c(-c2ccc(C(=O)N3CCCC3)cc2)c2c(N)ncnc21 [Example 556],0.25 to 1
9,Cn1c(-c2ccc(N3CC=CC3=O)cc2)c(-c2ccc(C(=O)N3CCCC3)cc2)c2c(N)ncnc21 [Example 557],1 to 100
10,CC(Cl)C(=O)Nc1ccc(-c2c(-c3ccc(C(=O)N4CCCC4)cc3)c3c(N)ncnc3n2C)cc1 (stereo not drawn) [Example 561],0.25 to 1
11,C=C(C)C(=O)Nc1ccc(-c2c([C@H]3CC[C@@H](C(=O)N4CCCC4)CC3)c3c(N)ncnc3n2C)cc1 [Example 577],1 to 100
12,C=C(C)C(=O)Nc1ccc(-c2c([C@H]3CC[C@H](C(=O)N4CCCC4)CC3)c3c(N)ncnc3n2C)cc1 [Example 578],1 to 100
13,C=C(C)C(=O)Nc1ccc(-c2c(C3=CC[C@H](C(=O)N4CC5CC5C4)CC3)c3c(N)ncnc3n2C)cc1 (stereo partly drawn) [Example 581],1 to 100
14,Cn1c(-c2ccc(NC(=O)C3CO3)cc2)c(-c2ccc(C(=O)N3CCCC3)cc2)c2c(N)ncnc21 (stereo not drawn) [Example 586],0.1 to 0.25
15,C=C(C)C(=O)Nc1ccc(-c2c(-c3ccc(C(=O)N4CCCC4)cc3Cl)c3c(N)ncnc3n2C)cc1 [Example 587],1 to 100
16,C=C(C)C(=O)Nc1ccc(-c2c(-c3ccc(C(=O)N4CCCC4)cc3C(F)F)c3c(N)ncnc3n2C)cc1 [Example 588],1 to 100
17,C=C(C)C(=O)Nc1ccc(-c2c(-c3ccc(C(=O)N4CC5CC4(C(F)F)C5)cc3)c3c(N)ncnc3n2C)cc1 [Example 595],< 0.1
18,C=C(C)C(=O)Nc1ccc(-c2c(-c3ccc(C(=O)N4CCCC4)cn3)c3c(N)ncnc3n2C)cc1 [Example 596],< 0.1
19,C=C(C)C(=O)Nc1ccc(-c2c(-c3ccc(C(=O)N4CCCC4)cc3C)c3c(N)ncnc3n2C)cc1 [Example 597],1 to 100
20,C=C(C)C(=O)Nc1ccc(-c2c(-c3ccc4c(c3)COC4c3cccc(C)n3)c3c(N)ncnc3n2C)cc1 (stereo not drawn) [Example 599],0.1 to 0.25
21,C=CC(=O)N1CC(c2c(-c3ccc(Oc4ccccc4)cc3)c3c(N)ncnc3n2C)C1 [Example 604],< 0.1
22,C=CC(=O)N[C@H]1C[C@H](n2cc(-c3c(-c4ccc(Oc5ccccc5)cc4)c4c(N)ncnc4n3C)cn2)C1 [Example 605],< 0.1
